Reference: US20210106700A1, “Fractionated Dosing of a Phospholipid Ether Analog for the Treatment of Cancer” (Cellectar Biosciences, Inc., priority 2018, published 2021)

Test system: OPM-2 cell line (human multiple myeloma)
Assay: OPM-2 multiple myeloma subcutaneous xenograft in CB17 SCID mice (tumor volume, doubling time, survival, body weight)
Assay type: in vivo, mouse
Settings: fractionated dosing
Procedure: The OPM-2 cell line (human multiple myeloma) was purchased from American Type Culture Collection (ATCC, Rockville, Md.) and maintained in McCoy's 5a media supplemented with 10% fetal bovine serum. Female CB17 SCID mice approximately 5-7 weeks of age were injected subcutaneously with 1×10^7 viable cells (in ˜100 μL Dulbecco's PBS) into the right flank. The study was initiated when tumor size had reached a pre-determined size (approximately 150-200 mm3). The mice were given potassium iodide at a concentration of 0.1% in their drinking water to block possible free iodide in the drug formulation three days prior to injection and continuing through two weeks post-injection. Mice were randomly assigned to dose groups. Tumor volume was measured with a caliper during the course of the study. Tumor doubling time calculation4 TDT=D×log(2)/log(1+r/100), where D equals days between measurements and r=rate of growth; r/100=(V2−V1/V1)×100%. Statistical analysis: 1-way Anova, Dunnett's test.

^131I-labeled 18-(p-iodo-phenyl)octadecyl phosphocholine [CLR 131]
Tumor volume vs control (after day 26): statistically significant reduction
Tumor volume vs all other treatments (at day 52, p<0.05): statistically significant reduction
